# Columns and labels:
# [1] = test system: young and older postmenopausal women; assay: Autonomic (ganglionic) blockade with trimethaphan camsylate in young and older postmenopausal women: muscle sympathetic nerve activity, arterial pressure, total peripheral resistance; type: in vivo, human; settings: during trimethaphan
# Description: (§1) FIG. 1 is a graph plotting muscle sympathetic nerve activity (MSNA; bursts/min) as measured using a microneurography technique for 24 humans. The dose indicates the amount of trimethaphan in mg/min it took to abolish the sympathetic nerve bursts. The MSNA bursts per minute is the amount of sympathetic bursts that occurred at baseline, prior to drug infusion.
# (§2) FIG. 2 is a graph plotting the same dose of trimethaphan in mg/min compared to the difference in mean arterial pressure (MAP) between baseline and at the final trimethaphan dose.
# The effect of ganglionic blockade on arterial blood pressure and how this relates to baseline muscle sympathetic nerve activity in 12 young (25±1 years) and 12 older postmenopausal (61±2 years) women were examined. The women were studied before and during autonomic blockade using trimethaphan camsylate. At baseline, muscle sympathetic nerve activity burst frequency and burst incidence were higher in the older women (33±3 versus 15±1 bursts/min; 57±5 versus 25±2 bursts/100 heartbeats, respectively; P<0.05). Muscle sympathetic nerve activity bursts were abolished by trimethaphan within minutes (e.g., between about 6 and about 35 minutes). […] Baseline muscle sympathetic nerve activity was associated with the decrease in mean arterial pressure during trimethaphan (r=−0.74; P<0.05). See, also, Barnes et al., Hypertension, 63:303-308 (2014).
# healthy humans = assay: Brief escalating infusion of trimethaphan camsylate with non-invasive beat-to-beat arterial pressure measurement to distinguish high and low sympathetic activity individuals; type: in vivo, human; settings: infusion 1-4 mg/minute for 5-10 minutes, 24 healthy humans
# Description: as §1, §2
# Both normal human subjects and patients with diseases such as resistant hypertension can have very wide ranges of baseline sympathetic activity. The following was developed to distinguish those individuals with high levels of baseline sympathetic activity from individuals with lower levels of baseline sympathetic activity. Trimethaphan camsylate, a ganglionic blocking drug, was administered (e.g., by infusion) at 1-4 mg/minute for 5-10 minutes to 24 healthy humans, while non-invasive beat-to-beat measurements of arterial pressure were made. […] The relationship between the fall in blood pressure and baseline sympathetic activity in a group of about 20-30 healthy women ranging in age from their early 20's to their later 60's was determined (FIGS. 1 and 2). Similar data were obtained using healthy men. […]
# [2] = older postmenopausal women (61±2 years, n=12), P<0.01 versus young
smiles,measurement,setting,value
"O=C1N(Cc2ccccc2)C2C[S+]3CCCC3C2N1Cc1ccccc1 (stereo not drawn) [trimethaphan, trimethaphan camsylate]",Muscle sympathetic nerve activity bursts,[1]; 12 young and 12 older postmenopausal women,abolished
same,decrease in mean arterial pressure,[1]; [2],−29±2 mm Hg
same,decrease in total peripheral resistance,[1]; [2],−10±1 mm Hg/L per minute
same,decrease in mean arterial pressure,"[1]; young women (25±1 years, n=12)",−9±2 mm Hg
same,decrease in total peripheral resistance,"[1]; young women (25±1 years, n=12)",−5±1 mm Hg/L per minute
same,fall in blood pressure during brief escalating doses,healthy humans,directly related to baseline sympathetic activity

# Source: US20170065327A1, “METHODS AND MATERIALS FOR TREATING ELEVATED SYMPATHETIC NERVE ACTIVITY CONDITIONS” (Mayo Foundation for Medical Education and Research, priority 2014, published 2017)
